# Experimental data: PMC8880564, “Design, Synthesis, and Biological Evaluation of a Novel VEGFR-2 Inhibitor Based on a 1,2,5-Oxadiazole-2-Oxide Scaffold with MAPK Signaling Pathway Inhibition” (Pharmaceuticals, 2022)
# Tests used:
# Type in all cases: cell-based
# [1] = tested on: NCI-59 human cancer cell lines; experiment: NCI-60 one-dose SRB screening, full panel and subpanels; conditions: for activity at 10 µM: mean over the full panel, 10 µM one dose, 48 h, SRB, read-out: growth percentage, Mean
# Description: The structures of the synthesized compounds 6a–h, 12a–c, 11, 13a–c, and 14a–c were submitted to the National Cancer Institute’s Developmental Therapeutics Program (NCI-DTP), and all of them were selected for preliminary in vitro anticancer activity screening against NCI-59 human cancer cell lines at a concentration of 10 µM, using the sulforhodamine B (SRB) assay to determine the growth percentage and cell viability.
# The in vitro NCI-60 cell line screening assay was conducted at the National Cancer Institute (NCI), Bethesda, USA against 59 cancer cell lines representing 9 types of cancers, as reported earlier. Briefly, the human cancer cell lines were grown in RPMI 1640 medium containing 5% fetal bovine serum and 2 mM L-glutamine and inoculated into 96-well microtiter plates in 100 μL (5000 to 40,000 cells/well). Then, the plates were incubated at 37 °C, 5% CO2, 95% air, and 100% relative humidity for 24 h. After that, two plates of each cell line were fixed in situ with TCA, to represent cell population at time zero (Tz). The tested compounds were dissolved in DMSO at 400-fold and added so that the final concentration became 10 μM. The plates were then incubated for an additional 48 h followed by the addition of cold TCA to terminate the assay in case of adherent cells. Then, the cells were fixed in situ by cold 50% (w/v) TCA (50 μL; final concentration, 10% TCA) and incubated for 1 h at 4 °C. After discarding the supernatant, the plates were washed 5 times with tap water and air dried. Sulforhodamine B (SRB) solution (100 μL) at 0.4% (w/v) in 1% HOAc was added to each well, and plates were incubated for 10 min. at rt. Then, washing with 1% acetic acid was conducted 5 times to remove the unbound dye followed by air drying. After that, 10 mM trizma base was added to solubilize the bound stain, and the absorbance was read on an automated plate reader at a wavelength of 515 nm. On the other hand, the methodology for suspension cells was the same except that 50 μL of 80% TCA (final concentration, 16% TCA) was gently added to terminate the assay by fixing settled cells at the bottom of the wells. Percentage growth inhibition (GI%) was calculated as follows:
# Growth percentage=Ti (test growth in the presence of compound at 10 µM )−Tz (time zero)/C (control growth)−Tz (time zero)×100 for Ti ≥ Tz;
# Growth percentage=Ti (test growth in the presence of compound at 10 µM )−Tz (time zero)/Tz (time zero)×100 for Ti < Tz.
# where values of 100, 40, 0, −40, and −100 mean no GI, 60% GI, no net G, 40% lethality, and all cells are dead, respectively.
# Data are expressed as a one-dose mean graph of growth percentages including the mean, delta, and range.
# PC-3 = experiment: NCI-60 one-dose SRB screening; conditions: Homo sapiens, PC-3, Prostate Cancer, 10 µM one dose, 48 h, read-out: growth percentage
# MOLT-4 = experiment: NCI-60 one-dose SRB screening; conditions: Homo sapiens, MOLT-4, Leukemia, 10 µM one dose, 48 h, read-out: growth percentage
# A549/ATCC = experiment: NCI-60 one-dose SRB screening; conditions: Homo sapiens, Non-Small Cell Lung Cancer, 10 µM one dose, 48 h, read-out: growth percentage
# NCI-H460 = experiment: NCI-60 one-dose SRB screening; conditions: Homo sapiens, NCI-H460, Non-Small Cell Lung Cancer, 10 µM one dose, 48 h, read-out: growth percentage
# CAKI-1 = experiment: NCI-60 one-dose SRB screening; conditions: Homo sapiens, CAKI-1, Renal Cancer, 10 µM one dose, 48 h, read-out: growth percentage
# U251 = experiment: NCI-60 one-dose SRB screening; conditions: Homo sapiens, U-251, U251, CNS Cancer, 10 µM one dose, 48 h, read-out: growth percentage
# HT29 = experiment: NCI-60 one-dose SRB screening; conditions: Homo sapiens, HT-29, HT29, Colon Cancer, 10 µM one dose, 48 h, read-out: growth percentage
# SK-MEL-28 = experiment: NCI-60 one-dose SRB screening; conditions: Homo sapiens, SK-MEL-28, Melanoma, 10 µM one dose, 48 h, read-out: growth percentage
# M14 = experiment: NCI-60 one-dose SRB screening; conditions: Homo sapiens, M14, Melanoma, 10 µM one dose, 48 h, read-out: growth percentage
# SNB-19 = experiment: NCI-60 one-dose SRB screening; conditions: Homo sapiens, SNB-19, CNS Cancer, 10 µM one dose, 48 h, read-out: growth percentage
# HCC-2998 = experiment: NCI-60 one-dose SRB screening; conditions: Homo sapiens, HCC-2998, Colon Cancer, 10 µM one dose, 48 h, read-out: growth percentage
# NCI-H322M = experiment: NCI-60 one-dose SRB screening; conditions: Homo sapiens, Non-Small Cell Lung Cancer, 10 µM one dose, 48 h, read-out: growth percentage
# TK-10 = experiment: NCI-60 one-dose SRB screening; conditions: Homo sapiens, TK-10, Renal Cancer, 10 µM one dose, 48 h, read-out: growth percentage
# MCF7 = experiment: NCI-60 one-dose SRB screening; conditions: Homo sapiens, MCF7, Breast Cancer, 10 µM one dose, 48 h, read-out: growth percentage
# RPMI-8226 = experiment: NCI-60 one-dose SRB screening; conditions: Homo sapiens, RPMI-8226, Leukemia, 10 µM one dose, 48 h, read-out: growth percentage
Compound,activity at 10 µM ([1]; Homo sapiens) [%],activity at 10 µM (PC-3) [%],activity at 10 µM (MOLT-4) [%],activity at 10 µM (A549/ATCC) [%],activity at 10 µM (NCI-H460) [%],activity at 10 µM (CAKI-1) [%],activity at 10 µM (U251) [%],activity at 10 µM (HT29) [%],activity at 10 µM (SK-MEL-28) [%],activity at 10 µM (M14) [%],activity at 10 µM (SNB-19) [%],activity at 10 µM (HCC-2998) [%],activity at 10 µM (NCI-H322M) [%],activity at 10 µM (TK-10) [%],activity at 10 µM (MCF7) [%],"enhancement of the growth percentage (mean) ([1]; full NCI-59 panel, 10 µM)",activity at 10 µM (RPMI-8226) [%],"inhibition at 10 µM ([1]; Homo sapiens, full NCI-59 panel, 10 µM, read-out: mean growth inhibition % (MGI%, GI%)) [%]","mean growth inhibition % (MGI%, GI%) ([1]; full NCI-59 panel, 10 µM)"
Cc1nn(-c2ccccc2)c2nc(CCl)[nH]c(=O)c12 [13b],82.8,102,79.6,97.7,102,99.6,93.9,106,105,103,89.4,108,103,63.2,16.4,–,–,–,–
"[O-][n+]1onc(-c2ccccc2)c1COc1ccc(Nc2ncnc3c2cnn3-c2ccc(Br)cc2)cc1 [6e, 3-((4-((1-(4-bromophenyl)-1H-pyrazolo[3,4-d]pyrimidin-4-yl)amino)phenoxy)methyl)-4-phenyl-1,2,5-oxadiazole 2-oxide]",101,97,103,93.5,111,82.1,102,94.5,99.3,102,103,106,97.9,107,87.9,1–5%,111,–,–
"Cc1nn(-c2ccccc2)c2nc(CNc3ccc(NCc4c(-c5ccccc5)no[n+]4[O-])cc3)[nH]c(=O)c12 [14b, 3-(((4-(((3-methyl-4-oxo-1-phenyl-4,5-dihydro-1H-pyrazolo[3,4-d]pyrimidin-6-yl)methyl)amino)phenyl)amino)methyl)-4-phenyl-1,2,5-oxadiazole 2-oxide]",91.8,77.7,61.5,74.3,90,67.1,94.6,107,99.2,106,101,111,89,137,77,–,79,8.22,–
"Cc1nn(-c2ccc(Br)cc2)c2nc(C(F)(F)F)nc(Nc3ccc(NCc4c(-c5ccccc5)no[n+]4[O-])cc3)c12 [12c, 3-(((4-((1-(4-bromophenyl)-3-methyl-6-(trifluoromethyl)-1H-pyrazolo[3,4-d]pyrimidin-4-yl)amino)phenyl)amino)methyl)-4-phenyl-1,2,5-oxadiazole 2-oxide]",74.8,47,60.3,82.4,46.6,55,54.1,70.4,89.5,71.9,84.1,96.1,85.1,109,68.2,–,91.1,–,–
"Cc1nn(-c2ccccc2)c2nc(C(F)(F)F)nc(Nc3ccc(NCc4c(-c5ccccc5)no[n+]4[O-])cc3)c12 [12a, 3-(((4-((3-methyl-1-phenyl-6-(trifluoromethyl)-1H-pyrazolo[3,4-d]pyrimidin-4-yl)amino)phenyl)amino)methyl)-4-phenyl-1,2,5-oxadiazole 2-oxide]",76.8,45.6,56.4,76.6,53,53,69.9,61.5,92.4,68.7,88,85.6,77.6,94.4,58.5,–,83.4,–,–
"Nc1ccc(NCc2c(-c3ccccc3)no[n+]2[O-])cc1 [compound 11, 3-(((4-aminophenyl)amino)methyl)-4-phenyl-1,2,5-oxadiazole 2-oxide]",107,95.1,91.8,95.1,101,108,102,111,101,102,110,118,103,156,85.5,–,97.5,–,–
"Cc1nc(Nc2ccc(OCc3c(-c4ccccc4)no[n+]3[O-])cc2)c2cnn(-c3ccc(Br)cc3)c2n1 [6f, 3-((4-((1-(4-bromophenyl)-6-methyl-1H-pyrazolo[3,4-d]pyrimidin-4-yl)amino)phenoxy)methyl)-4-phenyl-1,2,5-oxadiazole 2-oxide]",99.7,103,91.5,94.9,103,81.9,99,97.3,103,94.2,91.5,104,90.8,97.7,85.3,–,115,–,no mean growth inhibition percentage
Cc1nn(-c2ccc(Br)cc2)c2nc(CCl)[nH]c(=O)c12 [13c],88.3,96.3,–,96.9,109,96.3,99.7,104,99.9,106,97.1,105,104,111,82.3,–,-53.9,–,–
